Test [1] deals with AM2-S31N mutant of the A/M2 proteins (Influenza A virus, UniProt P0DOF5, S31N). It counts as biochemical. The following applies: pH 5.5.
In test [2] the test system is A/WSN/33 (H1N1) virus. It counts as cell-based, influenza A virus.

With `CC(C)[Si](c1ccc(CNC23CC4CC(CC(O)(C4)C2)C3)cc1)(C(C)C)C(C)C` [Compound 5f], the “% AM2-S31N inhibition” value in test [1] is “inactive”. Moreover, the “A/WSN/33 EC50” value in test [2] is “inactive”.

Values taken from PMC5505654 (European journal of medicinal chemistry, 2017).
